The values below come from US4048202A (priority 1975, dated 1977).

Values after ≈ are worked out from the molar mass of the structure shown. Read-outs that look alike come from different tables or passages of the source.

Test in all cases: microbe, parasite or virus in culture
Assay [1] relates to C. paraputrificum (ATCC 1620-23). The format is cell-based. To be noted: Clostridium paraputrificum, read-out: Minimum Inhibitory Concentrations.
The test system of assay [2] is C.perfingens (ATCC 1620-19). In kind it is cell-based, Clostridium perfingens. To be noted: Clostridium, read-out: Minimum Inhibitory Concentrations.
The next assay concerns C.botulinum (ATCC 19397). In kind it is cell-based. The settings on record: Clostridium botulinum.
Assay [3] deals with C.perfingens (ATCC 13124). The format is cell-based, Clostridium perfingens. To be noted: Clostridium, read-out: Minimum Inhibitory Concentrations.
The next assay has as its system B.subtilis. In kind it is cell-based. The settings on record: Bacillus subtilis, read-out: Minimum Inhibitory Concentrations.
Where [4] appears, read: ATCC19397, pH 5, read-out: Minimum Inhibitory Concentrations.
The mark [5] stands for this setting: ATCC19397, pH 7, read-out: Minimum Inhibitory Concentrations.

In the case of `CCCCCC(=O)OCC(O)C(=O)O` (stereo not shown) [R=5, 3-O-hexanoylglyceric acid], the MIC turned out to be 10 µg/mL (≈ 49 µM) in assay [1] (ATCC1620, pH 5); 1000 µg/mL (≈ 4900 µM) in assay [1] (ATCC1620, pH 7); 10 µg/mL (≈ 49 µM) in assay [2] (ATCC1620, pH 5); 1000 µg/mL (≈ 4900 µM) in assay [2] (ATCC1620, pH 7); 10 µg/mL (≈ 49 µM) with C.botulinum (ATCC 19397) (setting [4]); 100 µg/mL (≈ 490 µM) in the assay on C.botulinum (ATCC 19397) (setting [5]). In addition, the MIC in assay [3] (ATCC13124, pH 5) is 100 µg/mL (≈ 490 µM); in assay [3] (ATCC13124, pH 7) it was 1000 µg/mL (≈ 4900 µM); with B.subtilis (pH 5) it was 10 µg/mL (≈ 49 µM); in the assay with B.subtilis (pH 7), 10000 µg/mL (≈ 49000 µM).
Turning to `CCCCCCCCCC(=O)OCC(O)C(=O)O` (stereo not shown) [R=9, 3-O-decanoylglyceric acid], the MIC is 10 µg/mL (≈ 38.4 µM) in assay [1] (ATCC1620, pH 5); 100 µg/mL (≈ 384 µM) in assay [1] (ATCC1620, pH 7); 10 µg/mL (≈ 38.4 µM) in assay [2] (ATCC1620, pH 5); 100 µg/mL (≈ 384 µM) in assay [2] (ATCC1620, pH 7); 10 µg/mL (≈ 38.4 µM) with C.botulinum (ATCC 19397) (setting [4]); 10 µg/mL (≈ 38.4 µM) in the assay on C.botulinum (ATCC 19397) (setting [5]). Moreover, the MIC in assay [3] (ATCC13124, pH 5) was determined as 10 µg/mL (≈ 38.4 µM); in assay [3] (ATCC13124, pH 7), 10 µg/mL (≈ 38.4 µM); in the assay with B.subtilis (pH 5), 10 µg/mL (≈ 38.4 µM); in the assay with B.subtilis (pH 7), 1000 µg/mL (≈ 3840 µM).
Regarding `CCCCCCCCCCCCC(=O)OCC(O)C(=O)O` (stereo not shown) [R=12, 3-O-tridecanoylglyceric acid], the MIC in assay [1] (ATCC1620, pH 5) came out at 10 µg/mL (≈ 33.1 µM); in assay [1] (ATCC1620, pH 7) it was 100 µg/mL (≈ 331 µM); in assay [2] (ATCC1620, pH 5), 10 µg/mL (≈ 33.1 µM); in assay [2] (ATCC1620, pH 7), 10 µg/mL (≈ 33.1 µM); with C.botulinum (ATCC 19397) (setting [4]), 10 µg/mL (≈ 33.1 µM); in the assay on C.botulinum (ATCC 19397) (setting [5]) it was 100 µg/mL (≈ 331 µM). The MIC was 10 µg/mL (≈ 33.1 µM) in assay [3] (ATCC13124, pH 5); 100 µg/mL (≈ 331 µM) in assay [3] (ATCC13124, pH 7); 10 µg/mL (≈ 33.1 µM) in the assay on B.subtilis (pH 5); 1000 µg/mL (≈ 3310 µM) in the assay with B.subtilis (pH 7).
On to `CCCCCCCCCCCCCCCC(=O)OCC(O)C(=O)O` (stereo not shown) [R=15, 3-O-hexadecanoylglyceric acid], for which the MIC amounted to 10 µg/mL (≈ 29 µM) in assay [1] (ATCC1620, pH 5); 1000 µg/mL (≈ 2900 µM) in assay [1] (ATCC1620, pH 7); 100 µg/mL (≈ 290 µM) in assay [2] (ATCC1620, pH 5); 100 µg/mL (≈ 290 µM) in assay [2] (ATCC1620, pH 7); 100 µg/mL (≈ 290 µM) in the assay with C.botulinum (ATCC 19397) (setting [4]); 1000 µg/mL (≈ 2900 µM) with C.botulinum (ATCC 19397) (setting [5]). Moreover, the MIC in assay [3] (ATCC13124, pH 5) is 10 µg/mL (≈ 29 µM); in assay [3] (ATCC13124, pH 7), 1000 µg/mL (≈ 2900 µM); with B.subtilis (pH 5), more than 10000 µg/mL; with B.subtilis (pH 7) it was 10000 µg/mL (≈ 29000 µM).
